From US5281626A, “Benzenesulfonamide derivatives” (Eisai Co., Ltd., priority 1990, dated 1994)

Legend:
[1] = test system: phospholipase A2 (PLA2) contained in the membrane fraction of rabbit heart; experiment: Inhibitory activity against phospholipase A2 (PLA2) contained in the membrane fraction of rabbit heart; format: biochemical; conditions: CaCl2 added, 37° C., 30 minutes
Method: (§1) A. Inhibitory activity against phospholipase A2 (PLA2) contained in the membrane fraction of rabbit heart or the supernatant fraction thereof (method) An NZW male rabbit was anesthetized by the intravenous administration of pentobarbital sodium to take out its heart. This heart was washed with ice cooled physiological saline to recover a ventricle, followed by the addition of ice-cooled 0.25M sucrose/20 mM tris hydrochloride buffer (pH: 8.0) in an amount of 5 ml per g of the ventricle. The obtained mixture was mashed with a homogenizer in ice water for 30 minutes and centrifuged at 1,000 g for 10 min. The supernatant was further centrifuged at 105,000 g for 60 min. The centrifugation was conducted at 0° to 4° C. The obtained supernatant was used as such as the supernatant fraction for examination. The precipitate was suspended in the same buffer as that described above and used as the membrane fraction for examination. The protein concentrations of these fractions were each adjusted to 5 mg/ml as determined by Lowry method. […] The test tubes of the membrane fraction were kept at 37° C. for 30 minutes for incubation, while those of the supernatant fraction were kept at 37° C. for 5 minutes for incubation. Each incubation was stopped by the addition of 1 ml of Dole reagent. […] The amount of ^14 C was determined with a liquid scintillation counter. Mepacrine was selected as a comparative compound. (Results)

[2] = test system: phospholipase A2 (PLA2) contained in the supernatant fraction of rabbit heart; experiment: Inhibitory activity against phospholipase A2 (PLA2) contained in the supernatant fraction of rabbit heart; format: biochemical; conditions: EGTA added, 37° C., 5 minutes
Method: as §1

[3] = test system: male SD rats; experiment: Toxicity test, intravenous; format: in vivo; conditions: 50 mg/kg intravenously, three male SD rats per group, observed for 3 hours
Method: A small amount of 1N HCl was added to each of the compounds of Examples 4, 6, 7, 8 and 15 to form aqueous solutions. These solutions were each intravenously administered to the groups of three male SD rats of 7 weeks of age in a dose of 50 mg/kg. […] No rat died.

[4] = test system: cardiac infarct size of rat; experiment: Influence on the cardiac infarct size of rat (ligation of the coronary artery); format: in vivo; conditions: 1 mg/kg through the tail vein 15 minutes prior to ligation; 3 hours of ligation
Method: B. Influence on the cardiac infarct size of rat
Sixty-one male rats (weight : 220 to 300 g) were made to get myocardial ischemia by the ligation of the coronary artery. After 3 hours from the ligation, hearts were taken out of the rats and cut into round slices to obtain preparations. These preparations were stained with […]. The area unstained therewith was regarded as a cardiac infarction nidus and the area ratio of the nidus to the left ventricle was determined by the image analysis and regarded as the cardiac infarct size.
The cardiac infarct size was reduced as compared with that of the control rat by 21% or 20% by the administration of the compound of Example 4 or 6 through the tail vein in a dose of 1 mg/kg before 15 minutes prior to the ligation of the coronary artery.

Compound	PLA2 -inhibitory activity IC30, membrane fraction [1] [µM]	PLA2 -inhibitory activity IC30, supernatant fraction [2] [µM]	mortality [3]	reduction of cardiac infarct size as compared with control rat [4] [%]
Cc1cccc(CCNS(=O)(=O)c2ccc(N(C)C(=O)/C=C/c3ccc(S(C)(=O)=O)cc3)cc2)n1 [Example 15, N-[2-(6-methyl-2-pyridyl)ethyl]-4-{N-methyl-N-[(E)-3-(4-methylsulfonylphenyl)-2-propenoyl]amino}benzenesulfonamide]	0.081	61	No rat died	–
Cc1cccc(CCN(C)S(=O)(=O)c2ccc(N(C)C(=O)/C=C/c3ccc(S(C)(=O)=O)cc3)cc2)n1 [Example 6, N-methyl N-[2-(6-methyl-2-pyridyl)ethyl]-4-{N-methyl-N-[(E)-3-(4-methylsulfonylphenyl)-2-propenoyl]amino}benzenesulfonamide]	0.056	> 100	No rat died	20
CN(C(=O)/C=C/c1ccc(S(C)(=O)=O)cc1)c1ccc(S(=O)(=O)NC2CCN(Cc3ccccc3)CC2)cc1 [Example 4, N-(1-benzyl-4-piperidyl)-4-(N-methyl [(E)-3-(4-methylsulfonylphenyl)-2-propenoyl]amino}benzenesulfonamide]	0.032	> 100	No rat died	21
CN(C(=O)/C=C/c1ccc(S(C)(=O)=O)cc1)c1ccc(S(=O)(=O)NC2CCCCN(Cc3ccccn3)C2)cc1 (racemic) [Example 8, (±)N-[1-(2-pyridylmethyl)-3-hexamethyleneimino]-4 {N methyl-N-[(E)-3-(4-methylsulfonylphenyl)-2-propenoyl]amino}benzenesulfonamide]	0.029	> 100	No rat died	–
CN(C(=O)/C=C/c1ccc(C#N)cc1)c1ccc(S(=O)(=O)NC2CCCCCC2)cc1 [Example 25, N-cycloheptyl-4-{N-methyl-N-[(E)-3-(4-cyanophenyl)-2-propenoyl]amino}benzenesulfonamide]	0.16	68	–	–
CN(C(=O)/C=C/c1ccc(O)c(O)c1)c1ccc(S(=O)(=O)NC2Cc3ccccc3C2)cc1 [Example 2, N-(2-indanyl)-4-{N-methyl-N-[(E)-3-(3,4-dihydroxyphenyl)-2-propenoyl]amino}benzenesulfonamide]	4.48	40	–	–
CN(C(=O)/C=C/c1ccc(S(C)(=O)=O)cc1)c1ccc(S(=O)(=O)N2CCCN(CCc3ccccc3)CC2)cc1 [Example 7, (E)-N-methyl-N-{4-[4-(2 phenylethyl)-homopiperazinyl]sulfonylphenyl}-3-(4-methylsulfonylphenyl)-2-propenamide]	–	–	No rat died	–
